Experimental data as given in patent US20210236391A1, “Dental Product, use of a Dental Product and methods of use of a dental product” (DR HEFF'S PRODUCTS LIMITED, priority 2015, published 2021).
Entries after “also recorded” stand apart in the source; their conditions may differ.

Legend:
[1] = Rhodamine B fluorescence intensity (lesion porosity) after in vitro pH-proteolytic cycling; design: species or system bovine; details: for decrease percentage of the mean Rhodamine fluorescence (F) exhibited by caries lesions: after treatments (suspended in artificial saliva, 5 times per day for 3 minutes) and pH-proteolytic cycling for 8 days
Experimental: An objective of the experimental study was to investigate the effects of mints containing bioactive agents, specifically the xylitol, ACP and eGCG, in the re-mineralization of root dentin surfaces. […] The caries lesions depths and porosity as well as mineral density (hydroxyapatite content) were estimated using fluorescence microscopy and micro-computed tomography. Extracted sound bovine incisors were freshly collected from a slaughterhouse, cleaned and stored at 4° C. in 0.1% thymol for no longer than 2 weeks. Two root fragments (5×4×1 mm) from the cervical portion (mesial and distal) of the root were obtained from each tooth using diamond disk mounted in a cutting machine (Isomet 1000, Buehler, Lake Bluff, IL, USA). The dentin surfaces were polished using #600 and #800 abrasive paper (Carbimet, Buehler) under constant water irrigation. The entire surface of the fragments was sealed with acid-resistant nail polish, except for a 4×3 mm window on the polished dentin surface. The root fragments were placed in a demineralization solution (2.2 mM CaCl2.2H2O, 2.2 mM KH2PO4, 50 mM acetate, pH 4.6) for 96 h at 37° C. to create initial caries lesions of approximately 120 μm-deep (1). Following lesion development, the fragments were rinsed thoroughly with deionized water, and half of the specimens' windows were covered with an acid-resistant nail polish to maintain the baseline lesion. […] The concentrations were optimized to simulate the in vivo conditions in which the normal salivary flow is 0.5 mL/min (2). Thus, one third of the mints (g) were dissolved in 0.5 ml of artificial saliva and the ingredients concentrations were kept at same ratio as in the original mint formulation. […] All solutions were prepared daily prior to use. In addition to pH cycling, the overnight re-mineralization solutions had bacterial collagenase from Chlostridium Histolycum (100 μg/ml) to simulate enzymatic challenge. Each specimen was sectioned perpendicularly to the varnished area so that each section included the baseline and post-treatment lesions. Half of each sample was used for fluorescence microscopy and the other half was used for micro-computed tomography. […] The assumption of equality of variances and normal distribution of errors were verified using Levene's test. Analysis of variance (ANOVA) followed by Scheffe or Game-Howell tests were performed at α=0.05 using SPSS 20 software.

[2] = In vitro pH-proteolytic cycling model, overall re-mineralization and tissue observations; design: species or system bovine
Source text: (§1) An objective of the experimental study was to investigate the effects of mints containing bioactive agents, specifically the xylitol, ACP and eGCG, in the re-mineralization of root dentin surfaces. […] The caries lesions depths and porosity as well as mineral density (hydroxyapatite content) were estimated using fluorescence microscopy and micro-computed tomography.
as §1, with “The” for “An”, “this” for “the experimental”, “agents (e.g.” for “agents, specifically the”, “eGCG)” for “eGCG,”, “micro computed” for “micro-computed”
Extracted sound bovine incisors were freshly collected from a slaughterhouse, cleaned and stored at 4° C. in 0.1% thymol for no longer than 2 weeks. Two root fragments (5×4×1 mm) from the cervical portion (mesial and distal) of the root were obtained from each tooth using diamond disk mounted in a cutting machine (Isomet 1000, Buehler, Lake Bluff, IL, USA). The dentin surfaces were polished using #600 and #800 abrasive paper (Carbimet, Buehler) under constant water irrigation. The entire surface of the fragments was sealed with acid-resistant nail polish, except for a 4×3 mm window on the polished dentin surface. […]

[3] = five xylitol lozenges spaced across the day, caries-active adults; cited from earlier work
[4] = Apparent mineral density by micro-computed tomography after in vitro pH-proteolytic cycling; design: species or system bovine; details: for effect on mineral density of the caries lesion (in words): after pH-proteolytic cycling and treatments, compared to AS control; for increase percentage of the apparent mineral density (mg HA/ccm): mean values after pH-proteolytic cycling and treatments, micro-CT
Experimental: An objective of the experimental study was to investigate the effects of mints containing bioactive agents, specifically the xylitol, ACP and eGCG, in the re-mineralization of root dentin surfaces. […] The caries lesions depths and porosity as well as mineral density (hydroxyapatite content) were estimated using fluorescence microscopy and micro-computed tomography. Extracted sound bovine incisors were freshly collected from a slaughterhouse, cleaned and stored at 4° C. in 0.1% thymol for no longer than 2 weeks. Two root fragments (5×4×1 mm) from the cervical portion (mesial and distal) of the root were obtained from each tooth using diamond disk mounted in a cutting machine (Isomet 1000, Buehler, Lake Bluff, IL, USA). The dentin surfaces were polished using #600 and #800 abrasive paper (Carbimet, Buehler) under constant water irrigation. The entire surface of the fragments was sealed with acid-resistant nail polish, except for a 4×3 mm window on the polished dentin surface. The root fragments were placed in a demineralization solution (2.2 mM CaCl2.2H2O, 2.2 mM KH2PO4, 50 mM acetate, pH 4.6) for 96 h at 37° C. to create initial caries lesions of approximately 120 μm-deep (1). Following lesion development, the fragments were rinsed thoroughly with deionized water, and half of the specimens' windows were covered with an acid-resistant nail polish to maintain the baseline lesion. […] The concentrations were optimized to simulate the in vivo conditions in which the normal salivary flow is 0.5 mL/min (2). Thus, one third of the mints (g) were dissolved in 0.5 ml of artificial saliva and the ingredients concentrations were kept at same ratio as in the original mint formulation. […] All solutions were prepared daily prior to use. In addition to pH cycling, the overnight re-mineralization solutions had bacterial collagenase from Chlostridium Histolycum (100 μg/ml) to simulate enzymatic challenge. Each specimen was sectioned perpendicularly to the varnished area so that each section included the baseline and post-treatment lesions. Half of each sample was used for fluorescence microscopy and the other half was used for micro-computed tomography. Specimens (n=6 per group) were fixed in 10% neutral buffered formalin for 24 h. Specimens were held securely in a specimen holder, which were soaked with phosphate-buffered saline (PBS). […] The manufacturer's software was used to filter noise and segment the data at a threshold of 220. Tissue mineral density (based on a standard calibration phantom provided by the manufacturer) was determined (mg/cc of hydroxyapatite). […] The assumption of equality of variances and normal distribution of errors were verified using Levene's test. […]

[5] = Caries lesion depth by fluorescence microscopy after in vitro pH-proteolytic cycling; design: species or system bovine; details: after treatments and pH-proteolytic cycling for 8 days
Experimental: An objective of the experimental study was to investigate the effects of mints containing bioactive agents, specifically the xylitol, ACP and eGCG, in the re-mineralization of root dentin surfaces. […] The caries lesions depths and porosity as well as mineral density (hydroxyapatite content) were estimated using fluorescence microscopy and micro-computed tomography. Extracted sound bovine incisors were freshly collected from a slaughterhouse, cleaned and stored at 4° C. in 0.1% thymol for no longer than 2 weeks. […] Half of each sample was used for fluorescence microscopy and the other half was used for micro-computed tomography. […] Samples were analyzed with a Fluorescence Microscope (DM16000 B, Leica), using TEX and DIC (differential interference contrast) channels. Fluorescence intensity line profiles obtained in TEX channel images of the pre and post-treatment lesions were analyzed in Image J Software (NIH), thereby providing mean intensity values (per pixel) for red emission channel of each image. The fluorescence intensity is directly related to the porosity of the de-mineralized dentin, where increased porosity is directly related to increased fluorescence intensity. Fluorescence data was presented as percentage difference from post-treatment and pre-treatment lesions of each specimen. […]

SMILES	decrease percentage of the mean Rhodamine fluorescence (F) exhibited by caries lesions [1] [%]	dental tissue loss ([2]; after pH-proteolytic cycling and treatments, in artificial saliva)	caries re-mineralization (overall conclusion) ([2]; artificially induced root caries, in vitro pH-proteolytic cycling)	caries-preventive effect on root surfaces [3]	incidence of smooth-surface, occusal-surface or proximal-surface caries, xylitol vs control participants [3]	effect on mineral density of the caries lesion (in words) [4]	lesion porosity / fluorescence decrease compared to AS (negative control), statistical significance ([1]; after treatments and pH-proteolytic cycling for 8 days)	increase percentage of the apparent mineral density (mg HA/ccm) [4] [%]	caries lesion depth change from initial lesions (in words) [5]
OC[C@@H](O)[C@H](O)[C@@H](O)CO [xylitol]	34.92	dental tissue loss occurs; also recorded: Dental tissue loss was mainly observed	no significant effect	appears to have a caries-preventive effect on root surfaces	no statistically significant difference	does not help to increase mineral density	–	–	–
O=C(O[C@@H]1Cc2c(O)cc(O)cc2O[C@@H]1c1cc(O)c(O)c(O)c1)c1cc(O)c(O)c(O)c1 [eGCG, epigallocatechin gallate]	85.72	–	–	–	–	promotes mineral density similar to fluoride; also recorded: increased mineral density	statistically significant differences; also recorded: significant decrease in lesion porosity	70.12	Significant (% caries lesion depth) decrease
[F-].[Na+] [NaF, sodium fluoride]	5.60	–	–	–	–	–	–	165.53	–
